Consider 1 compound from publication PMC5488423, “Prevention of dendritic and synaptic deficits and cognitive impairment with a neurotrophic compound” (Alzheimer's Research & Therapy, 2017).

Residues, ends and D or L forms follow the SMILES beside them. A value given as a limit tells only on which side of the number the result lay.

On the set-up of data set [1]: method as in PMID 25046994. The settings on record: over 120 min; cited from earlier work.
On the set-up of data set [2]: method as in PMID 25046994. The following applies: cited from earlier work.
Details of data set [3]: method as in PMID 25046994. The settings on record: cited from earlier work. The source holds these as a separate data set.
On the set-up of data set [4]: method as in PMID 25046994. The settings on record: over 30 min; cited from earlier work.
The test system of data set [5] is 3 × Tg-AD mice. Briefly: Side effects and safety during chronic dietary treatment. The class given is in vivo, mouse. The following applies: 60 nmol P021/g feed in diet. As to the method: At approximately 3 months of age, the animals were divided into three groups: one group of 3 × Tg-AD-P021 (n = 32) treated with 60 nmol P021/g feed in the diet; a second group of 3 × Tg-AD-vh (n = 35) treated with the same diet but without P021; and a third group of WT (n = 41) treated with the same diet but without P021. P021 was formulated by Research Diets (New Brunswick, NJ, USA). Food consumption was recorded every 2 weeks and body weight every month. The average mouse food consumption was ~2.7 g feed/day.

In the case of `CC(=O)N[C@@H](CC(=O)O)C(=O)NCC(=O)NCC(=O)N[C@@H](CC(C)C)C(=O)NC12CC3CC(C1)CC(C(N)=O)(C3)C2` [Peptide P021] (HELM PEPTIDE1{[ac].D.G.G.L.[NC(=O)C12CC3CC(CC(N[*:1])(C3)C1)C2]}$$$$V2.0), the “stability in intestinal fluid” value in data set [1] is reported as ~ 100%. Also, the plasma stability in data set [2] is given as > 3 h. Further, in data set [3], the “blood–brain barrier permeability” value is “blood–brain barrier permeable”. In addition, in data set [4], the “stability in artificial gastric juice” value is > 95%. Further, in data set [5] (preclinical study of almost 2 years), the “side effects or safety issues” value was “did not show any severe side effects or safety issues”. The “weight loss, tumors, or signs of pain” value in data set [5] (treatment for around 18 months) is “did not show any weight loss, tumors, or signs of pain”.
